Test results as given in patent publication US11612586B2, “Indole regulation of antigen presenting cells” (THE TEXAS A&M UNIVERSITY SYSTEM, priority 2016, dated 2023).

Columns and labels:
[1] = system: TNF; assay: TNF production in BMDCs, intracellular staining, flow cytometry; format: cell-based, mouse; conditions: 1 mM TDMM 24 hours, LPS (1 ug/ml) 4 hours
Experimental: Intracellular staining was performed to assess TNF production.
Intracellular staining was performed to assess TNF (FIG. 3A) and IL-12 (FIG. 3B) production.
Briefly, bone marrow was harvested from femurs of mice and cultured for 7 days in the presence of DC-skewing cytokines, GM-CSF and IL-4. […] The pro-inflammatory cytokines, IL-6 and IL-12, were specifically queried. […] Immune cells communicate largely through the production of soluble factors including cytokines, and DCs detect these signals and determine their effector functions accordingly.
The inventors performed a series of assays where bone marrow derived macrophages (BMDMs), bone marrow derived dendritic cells (BMDCs), and splenic dendritic cells (splenic DCs), were exposed to a series of TDMMs, including indole, indole-3-acetate (I3AT), 5-hydroxyindole (5HI), and indole-3-pyruvate (I3P), as well as indole-3-carbinol (I3C; a plant derived compound) to be used for a positive control (1 mM for 24 hours). The BMDMs and BMDCs were stimulated with LPS for 4 hours and assayed at day 7 for expression of various pro-inflammatory cytokines. In a similar assay, the BMDMs and BMDCs were stimulated with LPS or CpG, respectively, for 15 minutes and assayed for pAKT and pERK signaling, which is a reflection of pro-inflammatory response.

[2] = system: Th1 cells; assay: Th1 differentiation in DC-T cell co-culture; format: cell-based, mouse
Experimental: FIGS. 19A-19C graphically illustrate that indole-conditioned DCs inhibit Th1, Th2, and Th17 differentiation. Naïve CD4+CD25-T cells from OT-II TCR transgenic mice were isolated by column purification. Naïve T cells were then co-cultured with OVA323-339 peptide-loaded BMDCs for 72 hours in the presence or absence of lineage-skewing cytokines (described in methods). BMDCs were previously treated with indole, RA, or DMF from day 3. For the last 5 hours of culture, T cells were restimulated with PMA and ionomycin in the presence of Golgiplug, followed by intracellular staining. Cytokine production was determined to assess differentiation of Th1 (FIG. 19A), Th2 (FIG. 19B), and Th17 CD4+T (FIG. 19C) cells. Mean of three independent experiments. * indicates p<0.05 for one-way ANOVA followed by Dunnett's post-test.
FIGS. 20A and 20B graphically illustrate that T cell skewing mediated by indole-conditioned DCs is AhR-independent. BMDCs were differentiated from WT or AhR-KO mice and conditioned with indole, RA, or DMF from day 3. DCs were then loaded with OVA323-339 and co-cultured with naïve CD4+CD25− T cells from OT-II transgenic mice for 72 hours. […] Subsequently, all cultures were stained and analyzed by flow cytometry for Foxp3 to identify Tregs or (B) IFNγ to identify Th1 cells. […]

[3] = system: Stat3; assay: IL-6-induced phospho-Stat3 in BMDMs; format: cell-based, mouse
Experimental: BMDMs were treated with indole or DMF control for 18 hours, then stimulated with IL-6 (10 ng/ml) for the given times. Cells were stained for phospho-Stat3 and analyzed by flow cytometry.
Similarly, the ex vivo indole conditioning of splenocytes was repeated with tissues from AhR-deficient and wild-type mice and analyzed TNF production. […] Importantly, in this set of experiments splenocytes were stimulated with LPS, heat-killed S. typhimurium, and CpG. […] Specifically, BMDMs were generated from WT or AhR-KO mice and treated with indole (1 mM) or DMF control for 18 hours. BMDMs were then stimulated with IL-6 (10 ng/ml) for the given times and stained for phospho-Stat3, which was detected by flow cytometry.

[4] = system: TLR4; assay: Surface TLR4 expression on DC2.4 and BMDC; conditions: DC2.4 and BMDC 18 hours indole, BMDC indole from day 3
From the text: The ability of antigen-presenting cells to respond to bacterial LPS is dependent upon the expression of TLR4 on their surface.

[5] = system: DCs; assay: DC viability: lactate dehydrogenase release and propidium iodide uptake; conditions: versus solvent controls

## c1ccc2[nH]ccc2c1 [Indole, indole]
[1]
  TNF: ↓↓
[2]; co-culture with DCs conditioned with indole
  development of Th1 lineage: stark inhibition
[2]; indole-conditioned BMDCs from wild-type or AhR-deficient mice
  AhR dependence of inhibition of the Th1 lineage: AhR-independent
[3]; BMDMs from WT or AhR-KO mice, 1 mM indole 18 hours, IL-6 10 ng/ml
  reduction of Stat3 signaling: over 60%
[3]; BMDMs, overnight indole, IL-6 stimulation
  reduction of number of macrophages undergoing Stat3 phosphorylation: 50%
[4]
  surface TLR4 expression on DCs: does not alter surface TLR4 expression
[5]
  cytotoxicity in DCs: did not induce cytotoxicity
